Like-named read-outs stand apart in the source and are kept apart here. Marks after values point to notes of the source that are not given here.
Molecular target: T1, F508delCFTR (Homo sapiens, UniProt P13569, DEL508-508)
T1 construct: expressed in transfected cells; host or cells: CFBE41o- human lung derived epithelial cells (CFBE41o-F508delCFTR-HRP), doxycycline-inducible
Assay: Cell Surface Expression-Horse Radish Peroxidase (CSE-HRP) Assay;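 for EC50 (with co-corrector): co-corrector chromenyl benzoic acid corrector at 2 or 3 µM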;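 for Maximum % activity (without co-corrector): % of on-plate positive control chromenyl benzoic acid corrector at 2 or 3 µM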
Format: cell-based
Conditions: for Emax: read-out: Maximum % activity (without co-corrector)
In short: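 Corrector compounds were given as 8-point 3-fold series from 20 or 30 μM, with or without a 2 μM co-corrector, for 18-24 h at 33 °C. Surface HRP was read by luminol luminescence as % of positive control; variable-Hill-slope sigmoidal fitting gave EC50 from triplicate plates.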

[1] = test compound with co-corrector, maximum at any tested concentration
[2] = test compound with co-corrector, read-out: EC50 (with co-corrector)
[3] = test compound without co-corrector, maximum at any tested concentration
[4] = test compound without co-corrector, read-out: EC50 (without co-corrector)
[5] = test compound alone, without co-corrector, read-out: EC50 (without co-corrector)
[6] = with co-corrector, maximum at any tested concentration
[7] = with co-corrector, read-out: EC50 (with co-corrector)
[8] = without co-corrector, maximum at any tested concentration

T1 sequence (P13569 with tags, fused parts or gaps DEL508-508): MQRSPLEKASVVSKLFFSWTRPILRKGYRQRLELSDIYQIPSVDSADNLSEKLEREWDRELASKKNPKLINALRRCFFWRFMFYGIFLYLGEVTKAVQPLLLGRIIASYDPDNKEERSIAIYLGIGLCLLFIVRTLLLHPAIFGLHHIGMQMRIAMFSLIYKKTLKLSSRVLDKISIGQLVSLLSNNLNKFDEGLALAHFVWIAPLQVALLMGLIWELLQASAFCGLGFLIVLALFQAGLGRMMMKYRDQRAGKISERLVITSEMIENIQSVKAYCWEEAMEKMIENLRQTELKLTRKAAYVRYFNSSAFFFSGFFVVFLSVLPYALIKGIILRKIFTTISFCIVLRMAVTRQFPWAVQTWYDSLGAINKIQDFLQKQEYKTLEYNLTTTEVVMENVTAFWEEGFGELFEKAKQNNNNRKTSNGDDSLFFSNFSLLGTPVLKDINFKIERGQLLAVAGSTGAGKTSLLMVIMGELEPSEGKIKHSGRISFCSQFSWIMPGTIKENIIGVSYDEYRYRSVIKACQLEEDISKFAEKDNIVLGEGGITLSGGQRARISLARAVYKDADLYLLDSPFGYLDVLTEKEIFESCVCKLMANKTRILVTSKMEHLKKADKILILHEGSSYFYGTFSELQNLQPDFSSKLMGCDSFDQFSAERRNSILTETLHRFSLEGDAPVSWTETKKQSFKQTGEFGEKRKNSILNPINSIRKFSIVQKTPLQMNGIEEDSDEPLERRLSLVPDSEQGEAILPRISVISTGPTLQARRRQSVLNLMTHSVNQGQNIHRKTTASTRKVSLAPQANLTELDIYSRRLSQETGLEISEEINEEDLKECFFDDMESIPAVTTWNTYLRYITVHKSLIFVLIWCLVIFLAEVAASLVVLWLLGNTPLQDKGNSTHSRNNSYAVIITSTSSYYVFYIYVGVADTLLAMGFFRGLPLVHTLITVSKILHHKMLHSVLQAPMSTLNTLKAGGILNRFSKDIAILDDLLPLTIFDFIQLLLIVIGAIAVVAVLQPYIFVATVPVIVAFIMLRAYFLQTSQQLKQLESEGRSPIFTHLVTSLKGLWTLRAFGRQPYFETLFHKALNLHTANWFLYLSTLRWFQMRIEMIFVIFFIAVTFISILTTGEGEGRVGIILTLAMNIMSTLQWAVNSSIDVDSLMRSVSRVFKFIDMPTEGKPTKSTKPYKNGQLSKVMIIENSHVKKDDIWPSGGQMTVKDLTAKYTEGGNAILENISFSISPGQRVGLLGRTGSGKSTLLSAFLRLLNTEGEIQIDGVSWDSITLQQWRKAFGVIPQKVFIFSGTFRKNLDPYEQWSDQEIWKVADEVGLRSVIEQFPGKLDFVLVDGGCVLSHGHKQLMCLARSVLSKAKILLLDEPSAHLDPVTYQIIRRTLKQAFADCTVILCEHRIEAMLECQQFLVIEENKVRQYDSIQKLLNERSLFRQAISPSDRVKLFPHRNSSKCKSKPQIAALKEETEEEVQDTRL

Maximum % activity (with co-corrector) [1] | EC50 [2] | Emax [3] | EC50 [4] | EC50 [5] | Maximum % activity (with co-corrector) [6] | EC50 [7] | Emax [8] | EC50 (with co-corrector) (test compound with co-corrector) | EC50 (without co-corrector) (test compound without co-corrector) | Structure (SMILES) | Emax
+++ (≥350) | < 3 µM | > 150% | 3 to 10 µM |  |  |  |  |  |  | CCc1cnc(OCCOC)c(C2(C(=O)NS(=O)(=O)c3cccc4[nH]ccc34)CC2)c1 [Example GI-109, 1-[5-ethyl-2-(2-methoxyethoxy)pyridin-3-yl]-N-(1H-indole-4-sulfonyl)cyclopropane-1-carboxamide] | 
 |  |  |  | > 10 µM | + (<150) | > 10 µM | < 50% |  |  | CCCS(=O)(=O)NC(=O)C1(c2cccc(C)c2)CCOCC1 [Example III-120, 4-(3-methylphenyl)-N-(propane-1-sulfonyl)oxane-4-carboxamide] | 
 |  |  |  | < 3 µM | +++ (≥350) | < 3 µM | > 150% |  |  | CCc1ccc(OC(F)F)c(C2(C(=O)NS(=O)(=O)c3cccc4ncccc34)CC2)c1 [II-98] | 
 |  |  |  | > 10 µM | + (<150) | 3 to 10 µM | < 50% |  |  | O=C(NS(=O)(=O)c1cccnc1)C1(c2ccc(Cl)cc2Cl)CC1 [Example III-59, 1-(2,4-dichlorophenyl)-N-(pyridine-3-sulfonyl)cyclopropane-1-carboxamide] | 
+++ (≥350) | < 3 µM | > 150% | 3 to 10 µM |  |  |  |  |  |  | Cc1cnc(OC(C)C)c(C2(C(=O)NS(=O)(=O)c3cccc4[nH]ccc34)CC2)c1 [Example GI-59, N-(1H-indole-4-sulfonyl)-1-{5-methyl-2-[(propan-2-yl)oxy]pyridin-3-yl}cyclopropane-1-carboxamide] | 
 |  |  |  | < 3 µM | +++ (≥350) | < 3 µM | > 150% |  |  | COc1ncc(C2CCC2)cc1C1(C(=O)NS(=O)(=O)c2cccc3nc(C)ccc23)CC1 [Example I-3, 1-(5-cyclobutyl-2-methoxypyridin-3-yl)-N-(2-methylquinoline-5-sulfonyl)cyclopropane-1-carboxamide] | 
 |  |  |  | > 10 µM | ++ (≥150 and <350) | 3 to 10 µM | < 50% |  |  | COc1ccc(CO)cc1C1(C(=O)NS(=O)(=O)c2cccc3ncccc23)CC1 [II-48] | 
 |  |  |  | > 10 µM | ++ (≥150 and <350) | 3 to 10 µM | < 50% |  |  | O=C(NS(=O)(=O)c1ccccc1)C1(c2ccc(Cl)cc2)CCC1 [Example III-7, N-(benzenesulfonyl)-1-(4-chlorophenyl)cyclobutane-1-carboxamide] | 
 |  |  |  | 3 to 10 µM | +++ (≥350) | 3 to 10 µM | > 150% |  |  | COc1cc(C2CCC2)cc(OC)c1C1(C(=O)NS(=O)(=O)c2cccc3[nH]ncc23)CC1 [II-76] | 
 |  |  |  | < 3 µM | +++ (≥350) | < 3 µM | > 150% |  |  | COc1ccc(C2CC2)c(C)c1C1(C(=O)NS(=O)(=O)c2cccc3nc(C)ccc23)CC1 [II-52] | 
+ (<150) | > 10 µM | < 50% | > 10 µM |  |  |  |  |  |  | Cc1ccc2c(S(=O)(=O)NC(=O)C3(c4cc(C5CCC5)cnc4N4CCN(C)CC4)CC3)cccc2n1 [GIII-32] | 
 |  |  |  | > 10 µM | + (<150) | > 10 µM | < 50% |  |  | Cc1cccc(C2(C(=O)NS(=O)(=O)c3ccccc3C)CCOCC2)c1 [Example III-82, N-(2-methylbenzene-1-sulfonyl)-4-(3-methylphenyl)oxane-4-carboxamide] | 
+++ (≥350) | 3 to 10 µM | > 150% | 3 to 10 µM |  |  |  |  |  |  | CC(C)Oc1cnc(C2CCC2)cc1C1(C(=O)NS(=O)(=O)c2cccc3c2CCCN3)CC1 [GII-26, 1-{2-cyclobutyl-5-[(propan-2-yl)oxy]pyridin-4-yl}-N-(1,2,3,4-tetrahydroquinoline-5-sulfonyl)cyclopropane-1-carboxamide] | 
 |  |  |  | 3 to 10 µM | +++ (≥350) | 3 to 10 µM | > 150% |  |  | COc1cccc(C)c1C1(C(=O)NS(=O)(=O)c2cccc3c2ccn3C)CC1 [Example III-102] | 
++ (≥150 and <350) |  | 50 to 150% |  |  |  |  |  | ++^a | ++^a | Cc1ccc2c(S(=O)(=O)NC(=O)C3(c4cc(C5CC5)cnc4N4CCOCC4)CC3)cccc2n1 [GIII-20] | 
 |  |  |  | > 10 µM | + (<150) | > 10 µM | < 50% |  |  | O=C1Cc2cc(S(=O)(=O)NC(=O)C3(c4cccc(Cl)c4)CC3)ccc2N1 [Example III-75, 1-(3-chlorophenyl)-N-(2-oxo-2,3-dihydro-1H-indole-5-sulfonyl)cyclopropane-1-carboxamide] | 
+++ (≥350) | < 3 µM | > 150% | 3 to 10 µM |  |  |  |  |  |  | Cc1ccc2c(S(=O)(=O)NC(=O)C3(c4cc(N5CCC5)cnc4OC(C)C)CC3)cccc2n1 [Example GI-84, 1-{5-(azetidin-1-yl)-2-[(propan-2-yl)oxy]pyridin-3-yl}-N-(2-methylquinoline-5-sulfonyl)cyclopropane-1-carboxamide] | 
 |  |  |  | > 10 µM | + (<150) | 3 to 10 µM | < 50% |  |  | COc1ccc(S(=O)(=O)NC(=O)C2(c3ccc(Cl)cc3Cl)CC2)cc1OC [Example III-25, 1-(2,4-dichlorophenyl)-N-(3,4-dimethoxybenzene-1-sulfonyl)cyclopropane-1-carboxamide] | 
 |  |  |  | < 3 µM | +++ (≥350) | < 3 µM | 50 to 150% |  |  | COc1ccc(C)c(OC)c1C1(C(=O)NS(=O)(=O)c2cccc3ccc(C)nc23)CC1 [II-39] | 
 |  |  |  | 3 to 10 µM | +++ (≥350) | 3 to 10 µM | > 150% |  |  | COc1ncc(C(F)(F)F)cc1C1(C(=O)NS(=O)(=O)c2cccc3cnn(C)c23)CC1 [Example III-97, 1-[2-methoxy-5-(trifluoromethyl)pyridin-3-yl]-N-(1-methyl-1H-indazole-7-sulfonyl)cyclopropane-1-carboxamide] | 
 |  |  |  | < 3 µM | +++ (≥350) | < 3 µM | > 150% |  |  | COc1cccc(C2CCC2)c1C1(C(=O)NS(=O)(=O)c2cccc3ncccc23)CC1 [Example I-51, 1-(2-cyclobutyl-6-methoxyphenyl)-N-(quinoline-5-sulfonyl)cyclopropane-1-carboxamide] | 
+++ (≥350) | 3 to 10 µM | > 150% | 3 to 10 µM |  |  |  |  |  |  | COc1nc(C(F)(F)F)ccc1C1(C(=O)NS(=O)(=O)c2cccc3ncccc23)CC1 [GII-10, 1-[2-methoxy-6-(trifluoromethyl)pyridin-3-yl]-N-(quinoline-5-sulfonyl)cyclopropane-1-carboxamide] | 
 |  |  |  | 3 to 10 µM | +++ (≥350) | < 3 µM | > 150% |  |  | O=C(NS(=O)(=O)c1cccc2c1CCCN2)C1(c2cc(OC(F)(F)F)ccc2Cl)CC1 [II-25] | 
 |  |  |  | < 3 µM | +++ (≥350) | < 3 µM | > 150% |  |  | CC(C)Oc1ncc(Br)cc1C1(C(=O)NS(=O)(=O)c2cccc3ncccc23)CC1 [Example GI-1, 1-{5-bromo-2-[(propan-2-yl)oxy]pyridin-3-yl}-N-(quinoline-5-sulfonyl)cyclopropane-1-carboxamide] | 
 |  |  |  | < 3 µM | +++ (≥350) | < 3 µM | > 150% |  |  | COc1ccc(Br)cc1C1(C(=O)NS(=O)(=O)c2cccc3ncccc23)CC1 [Example I-18, 1-(5-bromo-2-methoxyphenyl)-N-(quinoline-5-sulfonyl)cyclopropane-1-carboxamide] | 
 |  |  |  | < 3 µM | +++ (≥350) | < 3 µM | > 150% |  |  | COc1ccc(Br)cc1C1(C(=O)NS(=O)(=O)c2cccc3c2CCCN3)CC1 [Example I-11, 1-(5-bromo-2-methoxyphenyl)-N-(1,2,3,4-tetrahydroquinoline-5-sulfonyl)cyclopropane-1-carboxamide] | 
+++ (≥350) | 3 to 10 µM | > 150% | 3 to 10 µM |  |  |  |  |  |  | CCc1ccc(OC(C)C)c(C2(C(=O)NS(=O)(=O)c3cccc4nc(C)ccc34)CC2)n1 [Example GI-54, 1-{6-ethyl-3-[(propan-2-yl)oxy]pyridin-2-yl}-N-(2-methylquinoline-5-sulfonyl)cyclopropane-1-carboxamide] | 
 |  |  |  | > 10 µM | ++ (≥150 and <350) | 3 to 10 µM | < 50% |  |  | CC1(C)CC1(C(=O)NS(=O)(=O)c1ccccc1)c1ccccc1 (stereo not drawn) [Example III-61, N-(benzenesulfonyl)-2,2-dimethyl-1-phenylcyclopropane-1-carboxamide] | 
+++ (≥350) | < 3 µM | > 150% | < 3 µM |  |  |  |  |  |  | CC(C)COc1ncc(C2CCC2)cc1C1(C(=O)NS(=O)(=O)c2cccc3[nH]ccc23)CC1 [Example GI-52, 1-[5-cyclobutyl-2-(2-methylpropoxy)pyridin-3-yl]-N-(1H-indole-4-sulfonyl)cyclopropane-1-carboxamide] | 

Structure (SMILES) | Maximum % activity (with co-corrector) [1] | EC50 [2] | Emax [3] | EC50 [4] | EC50 [5] | Maximum % activity (with co-corrector) [6] | EC50 [7] | Emax [8] | EC50 (with co-corrector) (test compound with co-corrector) | EC50 (without co-corrector) (test compound without co-corrector) | Emax
COC(=O)c1ccc(OC)c(C2(C(=O)NS(=O)(=O)c3cccc4ccccc34)CC2)c1 [II-32] |  |  |  |  | 3 to 10 µM | +++ (≥350) | < 3 µM |  |  |  | > 150%

From patent US10829473B2, “Modulators of the cystic fibrosis transmembrane conductance regulator protein and methods of use” (AbbVie Overseas S.Á.R.L., priority 2017, dated 2020)
